# From patent US20190175691A1, “METHODS FOR DETECTING AND MODULATING THE EMBRYONIC-FETAL TRANSITION IN MAMMALIAN SPECIES” (BioTime, Inc., priority 2016, published 2019)
# Starred links: 1 amine or outer side, 2 acyl side, 3 side chain; linkers in the order of their positions; H or OH if unused. Positions of bridges follow the written chain, without caps; N, C: chain ends. Non-standard residues stand in square brackets, D forms with d. Residues, ends and D or L forms follow the SMILES beside them. Chains are numbered I, II in the order given. Actinocin(9to1) = Cc1c2oc3c(C)ccc(C(=O)[*:1])c3nc-2c(C(=O)[*:2])c(N)c1=O; NMeV = CN[C@H](C(=O)O)C(C)C; Sar = CNCC(=O)O
# Tested on: COX7A1 transcript
# Experiment: Screen for iTR factors: reduction of COX7A1 transcript in cancer cell lines
# Assay type: cell-based
# Settings: Lung (A549), breast (MCF7), and prostate (PC3) cancer cell lines
# Excerpt: Values under cell lines represent proportional decreased values for COX7A1 transcript in the cell line.
# Lung (A549), breast (MCF7), and prostate (PC3) cancer cell lines were exposed to diverse factors including biologically active small molecules as well as RNAi directed to specific genes and the relative reduction of levels of COX7A1 transcript was used as a marker of iTR.
row,Molecule,COX7A1 expression (relative reduction of COX7A1 transcript as marker of iTR)
1,O=C(O)[C@]1(Cc2cccc(Nc3nccs3)n2)CC[C@@H](Oc2cccc(Cl)c2F)CC1 [MK-5108],reduce COX7A1 expression
2,C[C@@H]1C[C@H]2O[C@@H]2/C=C\C=C\C(=O)Cc2c(Cl)c(O)cc(O)c2C(=O)O1 [radicocol],reduce COX7A1 expression
3,CO[C@H]1/C=C\C=C(/C)C(=O)NC2=CC(=O)C(NCCN(C)C)=C(C[C@@H](C)C[C@H](OC)[C@H](O)[C@@H](C)/C=C(\C)[C@@H]1OC(N)=O)C2=O [alvespimycin],reduce COX7A1 expression
4,COc1cc(/C=C/C(=O)CC(=O)/C=C/c2ccc(O)c(OC)c2)ccc1O [curcumin],reduce COX7A1 expression
5,CCn1cc(-c2ccnc3[nH]c(-c4cccc(CN(C)C)c4)cc23)c(-c2ccc(NC(=O)N(C)C)cc2)n1 [GSK1070916],reduce COX7A1 expression

# Tested on: umbilical cord-derived MSCs (MSCwj) and adult skin fibroblasts (MDW)
# Experiment: Percent confluency after 80 hours with secreted GFER
# Assay type: cell-based
# Settings: secreted GFER 0, 10.0 and 100 ng/mL, DMEM 10% FBS
# Procedure: (§1) The fibroblast line MDW (passage 5) is seeded in multiple wells of a 6 well plate and cultured to confluence. A 1.5 mm “scratch” was introduced onto the monolayer using a 200 ul pipette tip, thereby denuding the fibroblasts from the culture surface. Factors including 0.5 mM valproic acid, 10 ng/mL AMH, and 20 ng/mL GFER are added to the growth medium which as DMEM medium supplemented with 10% FBS. 24 hours later, the % of the denuded surface was determined by phase contrast microscopy. […] Due to the lability and diffusion of the factors when administered in vivo, the formulation of the factors alone or in combination in a hydrogel such as crosslinked hyaluronic acid or crosslinked hyaluronic acid and collagen provides a preferred method of delivering the factors to increase tissue regeneration in animals. Alternatively, umbilical cord-derived MSCs (MSCwj) and adult skin fibroblasts (MDW) each of which express fetal/adult markers such as COX7A1 are treated with the secreted form of GFER alone at concentrations of 0, 10.0 and 100 ng/mL in DMEM medium supplemented with 10% FBS an AMH
# d cultured for 80 hours and the % confluency is determined.
row,Molecule,confluency achieved
1,"GFER: GFER (Augmenter of Liver Regeneration (ALR)), secreted protein iTR factor",dose-dependent increase in confluency

# Tested on: MDW adult-derived skin fibroblasts
# Experiment: Illumina bead array expression of COX7A1 and COL1A1 in MDW fibroblasts
# Assay type: cell-based
# Settings: MDW passage 6-7, 6 days, mRNA for cMYC or SOX2 + 0.5 mM valproic acid
Molecule,expression of COX7A1,expression of the fibrosis marker COL1A1
CCCC(CCC)C(=O)O [valproic acid],reduced expression of COX7A1,decreased expression of the fibrosis marker COL1A1

# Tested on: adult-derived MDW fibroblasts
# Experiment: Scratch test on confluent MDW fibroblast monolayer
# Assay type: cell-based
# Settings: MDW passage 5, 1.5 mm scratch, 24 hours; 0.5 mM valproic acid, 10 ng/mL AMH, 20 ng/mL GFER; control 20%
# Procedure: The identification of the secreted protein iTR factors GFER and AMH as well as the agent valproic acid, provides a novel cocktail of factors to generate iTR in vitro as well as in vivo. To determine the effects of the factors, cultured adult-derived MDW fibroblasts as well as umbilical cord-derived MSCs (MSCwj) were treated with varying concentrations of the factors and the rate of growth and regrowth following a scratch test are performed.
# as §1
row,Molecule,regeneration (coverage of the denuded wounded zone) [%]
1,CCCC(CCC)C(=O)O [valproic acid],25
2,"GFER: GFER (Augmenter of Liver Regeneration (ALR)), secreted protein iTR factor",28
3,"AMH: anti-Mullerian hormone (AMH), secreted protein iTR factor (protein, UniProt P03971 452-560, looked up) Muellerian-inhibiting factor: SAGATAADGPCALRELSVDLRAERSVLIPETYQANNCQGVCGWPQSDRNPRYGNHVVLLLKMQVRGAALARPPCCVPTAYAGKLLISLSEERISAHHVPNMVATECGCR",68

# Tested on: COX7A1 transcript
# Experiment: Screen for iCM factors: increase of COX7A1 transcript in cancer cell lines
# Assay type: cell-based
# Settings: Lung (A549), breast (MCF7), and prostate (PC3) cancer cell lines
# Excerpt: Lung (A549), breast (MCF7), and prostate (PC3) cancer cell lines were exposed to diverse factors including biologically active small molecules as well as RNAi directed to specific genes and the relative increase in levels of COX7A1 transcript was used as a marker of iCM.
row,Molecule,COX7A1 expression (relative increase of COX7A1 transcript as marker of iCM)
1,CC(/C=C/C(=O)NO)=C\[C@@H](C)C(=O)c1ccc(N(C)C)cc1 [trichostatin-A],increased COX7A1 expression
2,"Cc1c2oc3c(C)ccc(C(=O)N[C@@H]4C(=O)N[C@H](C(C)C)C(=O)N5CCC[C@H]5C(=O)N(C)CC(=O)N(C)[C@@H](C(C)C)C(=O)O[C@@H]4C)c3nc-2c(C(=O)N[C@@H]2C(=O)N[C@H](C(C)C)C(=O)N3CCC[C@H]3C(=O)N(C)CC(=O)N(C)[C@@H](C(C)C)C(=O)O[C@@H]2C)c(N)c1=O [dactinomycin] (I: T[dV]P[Sar][NMeV] / II: T[dV]P[Sar][NMeV]; ester I:1-I:C, II:1-II:C; linker I:N-II:N via Actinocin(9to1))",increased COX7A1 expression
3,COc1cc2ncnc(Nc3ccc(F)c(Cl)c3)c2cc1OCCCN1CCOCC1 [gefitinib],increased COX7A1 expression
4,CCc1c2c(nc3ccc(O)cc13)-c1cc3c(c(=O)n1C2)COC(=O)[C@]3(O)CC [SN-38],increased COX7A1 expression
5,O=C1c2c(O)ccc(O)c2C(=O)c2c(NCCNCCO)ccc(NCCNCCO)c21 [mitoxantrone],increased COX7A1 expression
6,COc1cccc2c1C(=O)c1c(O)c3c(c(O)c1C2=O)C[C@@](O)(C(C)=O)C[C@@H]3O[C@H]1C[C@H](N)[C@H](O)[C@H](C)O1 [daunorubicin],increased COX7A1 expression
7,CC(C)[C@]12O[C@H]1[C@@H]1O[C@]13[C@]1(O[C@H]1C[C@H]1C4=C(CC[C@@]13C)C(=O)OC4)[C@@H]2O [triptolide],increased COX7A1 expression
8,CCN(CC)Cc1ccc2cc(COC(=O)Nc3ccc(C(=O)NO)cc3)ccc2c1 [givinostat],increased COX7A1 expression
9,Cc1onc(-c2c(F)cccc2Cl)c1C(=O)N[C@@H]1C(=O)N2[C@@H]1SC(C)(C)[C@@H]2C(=O)O [flucloxacillin],increased COX7A1 expression
10,COc1cccc2c1C(=O)c1c(O)c3c(c(O)c1C2=O)C[C@@](O)(C(=O)CO)C[C@@H]3O[C@H]1C[C@H](N)[C@H](O)[C@H](C)O1 [doxorubicin],increased COX7A1 expression
11,calyculin,increased COX7A1 expression
12,COc1cc([S+](C)[O-])ccc1-c1nc2ncccc2[nH]1 (stereo not shown) [sulmazole],increased COX7A1 expression
13,CN[C@@H]1C[C@H]2O[C@@](C)([C@@H]1OC)n1c3ccccc3c3c4c(c5c6ccccc6n2c5c31)C(=O)NC4 [staurosporine],increased COX7A1 expression
14,CC[C@@H]1C(=O)N(C)c2cnc(Nc3ccc(C(=O)NC4CCN(C)CC4)cc3OC)nc2N1C1CCCC1 [BI 2536],increased COX7A1 expression
15,COc1cc([C@@H]2c3cc4c(cc3[C@@H](O[C@@H]3O[C@@H]5CO[C@@H](c6cccs6)O[C@H]5[C@H](O)[C@H]3O)[C@H]3COC(=O)[C@H]23)OCO4)cc(OC)c1O [teniposide],increased COX7A1 expression
16,CN1CC[C@H](c2c(O)cc(O)c3c(=O)cc(-c4ccccc4Cl)oc23)[C@H](O)C1 [alvocidib],increased COX7A1 expression
17,CC1(C)[C@@H](OC(=O)CCC(=O)O)CC[C@]2(C)[C@H]3C(=O)C=C4[C@@H]5C[C@@](C)(C(=O)O)CC[C@]5(C)CC[C@@]4(C)[C@]3(C)CC[C@@H]12 [carbenoxolone],increased COX7A1 expression
